Results reported in paper PMC6778019 (Contraception, 2019).
Read-outs that look alike come from different tables or passages of the source. Each block holds one compound with its values, some of them ahead of it.

Columns and labels:
[1] = Steady-state pharmacokinetics of LNG and EE from day 21 of a COC cycle; assay type: in vivo, HIV-positive women; conditions: for AUClast Change (%) / AUCτ Change (%) / CL Change (%) / Cmax Change (%) / Cmin Change (%) / T1/2 Change (%) / Tmax Change (%) / Vss Change (%): Ritonavir arm vs control arm; for concentration at 24 h: oral, concentration 24 h after the last dose; for concentration at 24 h / Cmax / AUC: mean±SD; for Cmax: last dose of the cycle; for AUC: LNG AUCτ, AUC 24 h of the last dose of the 21-day cycle
[2] = cited from earlier work; for EE AUC / LNG AUC: COC EE 30 mcg / norgestrel 300 mcg
[3] = cited from earlier work
[4] = female, human, serum, po, T1/2, Ritonavir arm, half-life by NCA, median
[5] = COC users taking protease inhibitors

AUClast Change (%) [1]: 18.2%
AUCτ Change (%) [1]: 21.8%
CL Change (%) [1]: −15.1%
Cmax Change (%) [1]: 33.7%
Cmin Change (%) [1]: 8.5%
T1/2 Change (%) [1]: 10.5%
Tmax Change (%) [1]: 0.0%
Vss Change (%) [1]: −24.1%
Tmax ([1]; Ritonavir arm, median (95% Confidence interval)): 1.0 (1.0,2.9) h
Vss ([1]; Ritonavir arm, volume at steady state by NCA, median (95% Confidence interval)): 475 (370,671) L
EE pharmacokinetic profiles, ritonavir vs control ([1]; comparison between groups): not different between groups
concentration at 24 h ([1]; female, human, serum, EE Cmin, Control arm (n=10)): 0.0492 ± 0.0141 ng/mL
concentration at 24 h ([1]; female, human, serum, EE Cmin, Ritonavir arm): 0.0533 ± 0.0147 ng/mL
Tmax ([1]; female, human, serum, po): 1 h
Cmax ([1]; female, human, serum, po, EE Cmax, Control arm (n=10)): 0.163 ± 0.0438 ng/mL
half-life ([1]; female, human, serum, po, T1/2, Control arm (n=10), half-life by NCA, median): 28.4 h
half-life [1, 4]: 31.3 h
Compound: C#C[C@]1(O)CC[C@H]2[C@@H]3CCc4cc(O)ccc4[C@H]3CC[C@@]21C [EE, ethinyl estradiol]
EE AUC ([2]; women not taking nevirapine): 1457 ng·mL/h
EE AUC ([2]; women taking nevirapine): 1384 ng·mL/h

Compound: C#CC1(O)CC[C@H]2[C@@H]3CCC4=CC(=O)CC[C@@H]4[C@H]3CC[C@@]21CC (stereo partly drawn) [norgestrel]
increase in norgestrel AUC ([2]; women taking ARV vs not taking ARV medication): approximately 30%

Compound: C#C[C@]1(O)CC[C@H]2[C@@H]3CCC4=CC(=O)CC[C@@H]4[C@H]3CC[C@@]21CC [LNG, levonorgestrel]
AUClast Change (%) [1]: 32.0%
AUCτ Change (%) [1]: 32.6%
CL Change (%) [1]: −16.7%
Cmax Change (%) [1]: 27.0%
Cmin Change (%) [1]: 34.4%
T1/2 Change (%) [1]: 8.2%
Tmax Change (%) [1]: 33.3%
Vss Change (%) [1]: −13.2%
half-life ([1]; female, human, in vivo, po): 42.6 h
concentration at 24 h ([1]; female, human, serum, LNG Cmin, Control arm (n=10)): 3.7 ± 1.29 ng/mL
concentration at 24 h ([1]; female, human, serum, LNG Cmin, Ritonavir arm (n=5)): 4.97 ± 1.15 ng/mL
AUC ([1]; female, human, serum, po, Control arm (n=10)): 113 ± 37 ng·h/mL
AUC ([1]; female, human, serum, po, Ritonavir arm (n=5)): 150 ± 28 ng·h/mL
Cmax ([1]; female, human, serum, po, LNG Cmax, Control arm (n=10)): 7.62 ± 2.29 ng/mL
Cmax ([1]; female, human, serum, po, LNG Cmax, Ritonavir arm (n=5)): 9.68 ± 1.81 ng/mL
half-life [1, 4]: 46.2 h
increase in LNG exposure ([1]; women on ritonavir vs control): approximately 30%
LNG AUC ([2]; women not taking nevirapine): 114 ng·mL/h
LNG AUC ([2]; women taking nevirapine): 147 ng·mL/h

Compound: C#C[C@]1(O)CC[C@H]2[C@@H]3CCC4=CC(=O)CC[C@@H]4[C@H]3CC[C@@]21C [norethindrone]
decrease in norethindrone AUC [3, 5]: 18%
increase in AUC of norethindrone [3, 5]: 110%
increase in norethindrone AUC ([3]; norethindrone progestin-only pill, women using ritonavir): 50%
